Reference: patent publication US12161650B2, “Pharmaceutical compositions comprising a ryanodine receptor modulator and uses thereof” (priority 2021, dated 2024)
Values joined by “and” are separate entries in the source; they are usually repeats but may differ in a detail not shown here. Identical values can stand only once. Like-named read-outs stand apart in the source and are kept apart here.

What was measured:
[1] = Phase 1 clinical trial, safety of single and repeated oral doses; assay type: in vivo, human (healthy male volunteers)
Protocol: A Phase 1, randomized, double-blind, placebo-controlled clinical trial was performed to assess the safety and pharmacokinetics (PK) of Compound I after single, escalating, and repeated oral doses in health male volunteers.
(§1) The primary objective was to assess the safety of escalating single oral doses of Compound I compared with placebo in healthy male volunteers. The secondary objective was to measure plasma pharmacokinetic (PK) parameters of Compound I.
as §1, with “repeated” for “single”, “I over 14 days” for “I”, “I and to assess the concentration of Compound I in quadriceps muscle.” for “I.”

[2] = Phase 1b study in RYR1-Related Myopathy patients, plasma pharmacokinetics; assay type: in vivo, human (RYR1-Related Myopathy patients); conditions: for Ctrough_D13 / concentration at 13 day: Day 13 trough; for concentration at 13 day: read-out: Ctrough_D13; for AUC(0-inf): read-out: AUC0-inf; for half-life: read-out: t½ (converted)
Protocol: A Phase 1b study is performed in RYR1-Related Myopathy (RYR1-RM) affected individuals. Compound I was administered in a gastro-resistant tablet according to Example 3 at daily doses. The formulation comprised 20 mg Compound I (based on the mass of 4-[(7-methoxy-2,3-dihydro-1,4-benzothiazepin-4(5H)yl)methyl]benzoic acid). The first three participants were dosed with 120 mg of Compound I (6×20 mg tablets) daily for approximately 28 days. The second group was dosed with 200 mg of Compound I (10×20 mg tablets daily for approximately 28 days. Bloods for PK assessments were at baseline (Day 0, 24h PK), at the study mid-point (day 14±2 days, trough PK), and at the final study visit (day 28, 24h PK). Pharmacokinetic analysis was performed on plasma samples. PK parameters are set forth below: [table]

[3] = 120 mg oral daily for 28 days, Day 28, n 3, Max
[4] = 120 mg oral daily for 28 days, Day 28, n 3, Median
[5] = 120 mg oral daily for 28 days, Day 28, n 3, Min
[6] = 120 mg oral daily for 28 days, Day 28, n 3, arithmetic mean
[7] = 120 mg oral daily for 28 days, Day 28, n 3, geometric mean
[8] = human, plasma, po, 120 mg, 120 mg oral daily for 28 days, Day 28, n 3, arithmetic mean
[9] = human, plasma, po, 120 mg, 120 mg oral daily for 28 days, Day 28, n 3, geometric mean
[10] = human, plasma, po, 120 mg, single oral 120 mg, Day 1, three subjects, Median
[11] = human, plasma, po, 120 mg, single oral 120 mg, Day 1, three subjects, arithmetic mean

- AUC0-tau [2, 3]: 287 µg·h/mL
- Cmax, ss [2, 3]: 21300 ng/mL
- Cmin [2, 3]: 7760 ng/mL
- Tmax, ss [2, 3]: 6.00 h
- Tmin [2, 3]: 24.00 h
- Cmin [2, 4]: 7020 ng/mL
- Tmin [2, 4]: 24.000 h
- AUC0-tau [2, 5]: 243 µg·h/mL
- Cmax, ss [2, 5]: 16900 ng/mL
- Cmin [2, 5]: 5800 ng/mL
- Tmin [2, 5]: 1.00 h
- Cmin [2, 6]: 6860 ng/mL
- Tmin [2, 6]: 16.333 h
- Cmin [2, 7]: 6811 ng/mL
- Tmin [2, 7]: 8.320 h
- RA_AUC ([2]; 120 mg oral daily, AUCtau Day 28/AUC0-24 Day 1, n 3, Max): 1.64
- RA_AUC ([2]; 120 mg oral daily, AUCtau Day 28/AUC0-24 Day 1, n 3, Median): 1.618
- RA_AUC ([2]; 120 mg oral daily, AUCtau Day 28/AUC0-24 Day 1, n 3, Min): 1,50
- RA_AUC ([2]; 120 mg oral daily, AUCtau Day 28/AUC0-24 Day 1, n 3, arithmetic mean): 1.587
- RA_Cmax ([2]; 120 mg oral daily, Cmax Day 28/Cmax Day 1, n 3, Max): 1.72
- RA_Cmax ([2]; 120 mg oral daily, Cmax Day 28/Cmax Day 1, n 3, Median): 1.523
- RA_Cmax ([2]; 120 mg oral daily, Cmax Day 28/Cmax Day 1, n 3, Min): 1.21
- RA_Cmax ([2]; 120 mg oral daily, Cmax Day 28/Cmax Day 1, n 3, arithmetic mean): 1.485
- Ctrough_D13 ([2]; 120 mg oral daily, n 3, Median): 8040 ng/mL
- Ctrough_D13 ([2]; 120 mg oral daily, n 3, Min): 6710 ng/mL
- Ctrough_D13 ([2]; 120 mg oral daily, n 3, geometric mean): 7970 ng/mL
- Time of Cmin, individual values ([2]; 120 mg oral daily, Day 28, 1 for 1 subject, 24 for two subjects): 1 h and 24 h
- Tmax,ss, individual values ([2]; 120 mg oral daily, Day 28, 4 for two participants, 6 for the third subject): 6 h
- AUC ([2]; human, plasma, po, 120 mg, 120 mg oral daily for 28 days, Day 28, n 3, Median, read-out: AUC0-tau): 285 µg·h/mL
- Cmax ([2]; human, plasma, po, 120 mg, 120 mg oral daily for 28 days, Day 28, n 3, Median, read-out: Cmax, ss): 19800 ng/mL
- Tmax ([2]; human, plasma, po, 120 mg, 120 mg oral daily for 28 days, Day 28, n 3, Median, read-out: Tmax): 4 h
- Cmax at 28 days [2, 8]: 19300 ng/mL
- Tmax at 28 days [2, 8]: 4.67 h
- AUC ([2]; human, plasma, po, 120 mg, 120 mg oral daily for 28 days, Day 28, n 3, arithmetic mean, read-out: AUC0-tau): 272 µg·h/mL
- Cmax at 28 days [2, 9]: 19200 ng/mL
- Tmax at 28 days [2, 9]: 4.58 h
- AUC ([2]; human, plasma, po, 120 mg, 120 mg oral daily for 28 days, Day 28, n 3, geometric mean, read-out: AUC0-tau): ~271 µg·h/mL
- Cmax ([2]; human, plasma, po, 120 mg, 120 mg oral daily for 28 days, Day 28, n 3, geometric mean, read-out: Cmax, ss): ~19200 ng/mL
- concentration at 13 day ([2]; human, plasma, po, 120 mg, 120 mg oral daily, n 3, Max): 9400 ng/mL
- concentration at 13 day ([2]; human, plasma, po, 120 mg, 120 mg oral daily, n 3, arithmetic mean): 8050 ng/mL
- concentration at 13 day ([2]; human, plasma, po, 120 mg, 120 mg oral daily, n 3, geometric mean): 7970 ng/mL
- Tmax ([2]; human, plasma, po, 120 mg, 120 mg oral daily, Day 28, 4 for two participants, 6 for the third subject, read-out: Tmax,ss, individual values): 4 h
- AUC ([2]; human, plasma, po, 120 mg, 120 mg oral daily, Day 28, read-out: AUC0-tau, individual values): 243 to 287 µg·h/mL
- Cmax ([2]; human, plasma, po, 120 mg, 120 mg oral daily, Day 28, read-out: Cmax,ss, individual values): 16900 to 21300 ng/mL
- concentration at 28 day ([2]; human, plasma, po, 120 mg, 120 mg oral daily, Day 28, read-out: Cmin, individual values): 5800 to 7760 ng/mL
- AUC(0-t) ([2]; human, plasma, po, 120 mg, single oral 120 mg, Day 1, three subjects, Median, read-out: AUC0-24): 175 µg·h/mL
- AUC(0-inf) [2, 10]: 274 µg·h/mL
- AUC(0-t) ([2]; human, plasma, po, 120 mg, single oral 120 mg, Day 1, three subjects, Median, read-out: AUC0-t): 175 µg·h/mL
- Cmax ([2]; human, plasma, po, 120 mg, single oral 120 mg, Day 1, three subjects, Median, read-out: Cmax): 12400 ng/mL
- Tmax ([2]; human, plasma, po, 120 mg, single oral 120 mg, Day 1, three subjects, Median, read-out: Tmax): 3 h
- half-life [2, 10]: 14.4 h
- AUC(0-t) ([2]; human, plasma, po, 120 mg, single oral 120 mg, Day 1, three subjects, arithmetic mean, read-out: AUC0-24): 172 µg·h/mL
- AUC(0-inf) [2, 11]: 259 µg·h/mL
- AUC(0-t) ([2]; human, plasma, po, 120 mg, single oral 120 mg, Day 1, three subjects, arithmetic mean, read-out: AUC0-t): 172 µg·h/mL
- Cmax ([2]; human, plasma, po, 120 mg, single oral 120 mg, Day 1, three subjects, arithmetic mean, read-out: Cmax): 13300 ng/mL
- Tmax ([2]; human, plasma, po, 120 mg, single oral 120 mg, Day 1, three subjects, arithmetic mean, read-out: Tmax): 3 h
- half-life [2, 11]: 14.1 h
- AUC(0-t) ([2]; human, plasma, po, 120 mg, single oral 120 mg, Day 1, three subjects, geometric mean, read-out: AUC0-24): 171 µg·h/mL
- AUC(0-inf) ([2]; human, plasma, po, 120 mg, single oral 120 mg, Day 1, three subjects, geometric mean): 257 µg·h/mL
SMILES: COc1ccc2c(c1)CN(Cc1ccc(C(=O)O)cc1)CCS2.O=C(O)/C=C/C(=O)O [Compound I, 4-[(7-methoxy-2,3-dihydro-1,4-benzothiazepin-4(5H)yl)methyl]benzoic acid hemifumarate]
- Tolerability ([1]; at the doses and dose regimens tested): well tolerated
- Serious adverse events ([1]; single doses up to 400 mg and repeated doses up to 240 mg/d for 14 days): No serious adverse events were reported
